{
  "source": "patent US20090318413A1",
  "about": "“BRONCHIAL SMOOTH MUSCLE REMODELING INVOLVES CALCIUM-DEPENDENT ENHANCED MITOCHONDRIAL BIOGENESIS IN ASTHMA” (UNIVERSITE VICTOR SEGALEN BORDEAUX 2, priority 2008, published 2009)",
  "key": {"[1]": {"system": "NRF-1", "experiment": "Western blot of NRF-1 in BSM cells", "type": "cell-based, human", "settings": "asthmatic BSM cells; 1 μM D600 for 48 h", "procedure": "(§1) To analyze the mitochondrial ultrastructure, BSM cells were growth arrested, as described in the previous section, for 6 d. Three million cells were then collected and centrifuged at 400 g for 5 min. Cell pellets were fixed in 2.5% glutaraldehyde for 2 h at 4° C. and processed for electron microscopy, as described in the previous section. Growth curves were built to assess the role of mitochondria in cell proliferation. For this purpose, 25,000 BSM cells were plated on 75-cm^2 flasks and cultured with 10% FCS-DME containing either 4.5 g/liter galactose or 4.5 g/liter glucose. […] For these latter experiments, medium was changed every 24 h, and, at the indicated time, BSM cells were harvested by trypsinization and counted in triplicate using a cytometer.\n(§2) Whole lysates from BSM cells were collected using 1% Triton X-100 lysis buffer in the presence of 2 mM Na orthovanadate, 1 mM EDTA, 50 μg/ml aprotinin, 100 μM leupeptin, 1 mM 1.4 Dithio-DL-Treitol, and 1 mM amino-ethyl-benzenesulfonyl fluoride hydrochloride (all from Sigma-Aldrich). […] Blot images were acquired using BioCaptMW (Thermo Fisher Scientific), and band densities were quantified using ImageJ software."}, "[2]": {"system": "PGC-1α", "experiment": "Western blot of PGC-1α in BSM cells", "type": "cell-based, human", "settings": "asthmatic BSM cells; 1 μM D600 for 48 h", "procedure": "as §1, §2"}, "[3]": {"system": "mtTFA", "experiment": "Western blot of mtTFA in BSM cells", "type": "cell-based, human", "settings": "asthmatic BSM cells; 1 μM D600 for 48 h", "procedure": "as §1, §2"}, "[4]": {"system": "BSM cells", "experiment": "BrdU incorporation (DNA synthesis) in BSM cells", "type": "cell-based, human", "settings": "10% FCS-DME glucose, ethidium bromide or cyclic GMP 24 h", "procedure": "Growth-arrested BSM cells were cultured in 96-well plates for 24 h and stimulated with 10% FCS-DME containing glucose, galactose, ethidium bromide, or cyclic GMP for 24 h or containing D600 for 48 h, as described above. Control BSM cells remained in serum-deprived DME. DNA synthesis was measured using the BrdU kit according to the manufacturer's instructions (Roche). In brief, BSM cells were incubated with 10 μM BrdU for 2 h at 37° C. and fixed for 20 min at room temperature. Cells were denaturized for 30 min and incubated with the anti-BrdU antibody for 2 h at room temperature. Absorbance was measured at 370 nm in a microplate reader in triplicate. Results are expressed as a normalized ratio of BrdU incorporation, i.e. absorbance for test condition divided by absorbance for control serum-deprived condition."}, "[5]": {"system": "porin", "experiment": "Mitochondrial mass by porin content (Western blot) in BSM cells", "type": "cell-based, human", "procedure": "(§3) To analyze the mitochondrial ultrastructure, BSM cells were growth arrested, as described in the previous section, for 6 d. Three million cells were then collected and centrifuged at 400 g for 5 min. Cell pellets were fixed in 2.5% glutaraldehyde for 2 h at 4° C. and processed for electron microscopy, as described in the previous section. Growth curves were built to assess the role of mitochondria in cell proliferation. For this purpose, 25,000 BSM cells were plated on 75-cm^2 flasks and cultured with 10% FCS-DME containing either 4.5 g/liter galactose or 4.5 g/liter glucose. In another set of experiments, we investigated the effects of 50 μg/liter ethidium bromide (Qbiogene) for up to 33 d, 1.3 g/liter cyclic cGMP (3 mM; Sigma-Aldrich) for up to 6 d, or […] D600, i.e., methoxyverapamil or gallopamil (1 μM; Sigma-Aldrich) for up to 2 d in 10% FCS-DME containing 4.5 g/liter glucose. For these latter experiments, medium was changed every 24 h, and, at the indicated time, BSM cells were harvested by trypsinization and counted in triplicate using a cytometer.\nWhole lysates from BSM cells were collected using 1% Triton X-100 lysis buffer in the presence of 2 mM Na orthovanadate, 1 mM EDTA, 50 μg/ml aprotinin, 100 μM leupeptin, 1 mM 1.4 Dithio-DL-Treitol, and 1 mM amino-ethyl-benzenesulfonyl fluoride hydrochloride (all from Sigma-Aldrich). Cellular extracts were reduced with mercaptoethanol, subjected to electrophoresis on a 10% acrylamide reducing gel, and transferred to PVDF membranes (Immobilon TM-P; Millipore). The immunoblots were then developed using mouse anti-human porin (MitoSciences), mouse anti-human α-actin (Sigma-Aldrich), rabbit anti-human phospho-CaMK-IV, rabbit anti-human PGC-1α, rabbit anti-human NRF-1, or rabbit anti-human mitochondrial transcription factor A (mtTFA; all purchased from Santa Cruz Biotechnology, Inc.) for 14 h at 4° C. For amplification, biotinylated goat secondary antibody anti-mouse IgG (Bio-Rad Laboratories) or anti-rabbit IgG (Santa Cruz Biotechnology, Inc.) for 2 h at room temperature and a streptavidin-biotinylated horseradish peroxidase complex (Dako) were used. […] Blot images were acquired using BioCaptMW (Thermo Fisher Scientific), and band densities were quantified using ImageJ software."}, "[6]": {"system": "CaMK-IV", "experiment": "Western blot of phosphorylated CaMK-IV in BSM cells", "type": "cell-based, human", "settings": "asthmatic BSM cells; 1 μM D600", "procedure": "as §1, §2"}, "[7]": {"system": "BSM cells", "experiment": "Microspectrofluorimetry of intracellular calcium (indo-1) after acetylcholine stimulation", "type": "cell-based, human", "settings": "asthmatic BSM cells; 10^-5 M acetylcholine; 1 μM D600 with 2 mM Ca2+, or 400 μM EGTA without extracellular calcium", "procedure": "Change in growth-arrested BSM cell intracellular calcium concentration ([Ca^2+]i), was assessed using the Ca^2+-sensitive probe indo-1, as previously described (Berger et al., J. Appl. Physiol. 91:995-1003 (2001); Trian et al., Am. J. Respir. Cell Mol. Biol. 34:49-55 (2006)). In brief, cells were loaded with indo-1 (Calbiochem) and mounted in a perfusion chamber continuously perfused with phosphate salt solution containing either 2 mM Ca2+ in the absence or presence of 1 μM D600, or 400 μM EGTA (Sigma-Aldrich) in the absence of extracellular calcium. BSM cells were stimulated with 10^−5 M acetylcholine or histamine (both from Sigma-Aldrich). Individual cell calcium levels were monitored continuously. Results were expressed as the mean±the SEM of resting or peak of [Ca^2+]i rises (in […]) and area under the curves (nanomoles/second). Experiments were carried out at room temperature (22-25° C.)."}, "[8]": {"system": "U937, L6, and PC12", "settings": "various cell lines, including U937, L6, and PC12; cited from earlier work"}, "[9]": {"system": "BSM cells", "experiment": "BSM cell growth curves (cell counting), doubling time and proliferation", "type": "cell-based, human", "settings": "for doubling time of cell growth: glucose medium + 50 μg/liter ethidium bromide or 3 mM cyclic GMP; for proliferation of BSM cells: glucose medium + ethidium bromide or cyclic GMP", "procedure": "as §3"}, "[10]": {"system": "endothelial cells", "settings": "cited from earlier work"}, "[11]": {"system": "vascular smooth muscle cells", "settings": "mesangial cells and various fibroblasts; cited from earlier work"}},
  "note": "Where two headings read alike, the source gives them in different places.",
  "data": [
    {"compound": "5-[2-(3,4-dimémethoxyphenyl)ethyl-methylamino]-2-propan-2-yl-2-(3,4,5-triméthoxyphenyl)pentanenitrile hydrochloride [D600]", "values": [
      {"measurement": "activation of mitochondrial biogenesis through NRF-1", "setting": "[1]", "result": "inhibited"},
      {"measurement": "activation of mitochondrial biogenesis through PGC-α", "setting": "[2]", "result": "inhibited"},
      {"measurement": "activation of mitochondrial biogenesis through mtTFA", "setting": "[3]", "result": "inhibited"},
      {"measurement": "BrdU incorporation", "setting": "[4]; asthmatic BSM cells, 1 μM D600 48 h", "result": "significantly inhibited"},
      {"measurement": "mitochondrial content (amount of porin)", "setting": "[5]", "result": "blocks"},
      {"measurement": "activation (phosphorylation) of CaMK-IV", "setting": "[6]", "result": "inhibited"},
      {"measurement": "abnormal calcium response (area under the curve) to acetylcholine", "setting": "[7]", "result": "abolished"}
    ]},
    {"compound": "O=C(O)CN(CCOCCOCCN(CC(=O)O)CC(=O)O)CC(=O)O", "note": "[EGTA]", "values": [
      {"measurement": "abnormal calcium response (area under the curve) to acetylcholine", "setting": "[7]", "result": "abolished"}
    ]},
    {"compound": "Nc1nc2c(ncn2[C@@H]2O[C@@H]3COP(=O)(O)O[C@H]3[C@H]2O)c(=O)[nH]1", "note": "[cyclic GMP]", "values": [
      {"measurement": "PGC-1α and mitochondrial biogenesis", "setting": "[8]", "result": "activate"},
      {"measurement": "BrdU incorporation", "setting": "[4]; COPD BSM cells", "result": "increased"},
      {"measurement": "BrdU incorporation", "setting": "[4]; control BSM cells", "result": "increased"},
      {"measurement": "doubling time of cell growth", "setting": "[9]; COPD BSM cells", "result": "significantly decreased"},
      {"measurement": "proliferation of BSM cells", "setting": "[9]; COPD BSM cells", "result": "increased"},
      {"measurement": "doubling time of cell growth", "setting": "[9]; asthmatic BSM cells", "result": "had no effect"},
      {"measurement": "proliferation of BSM cells", "setting": "[9]; asthmatic BSM cells", "result": "had no effect"},
      {"measurement": "doubling time of cell growth", "setting": "[9]; control BSM cells", "result": "decreased"},
      {"measurement": "proliferation of BSM cells", "setting": "[9]; control BSM cells", "result": "increased"},
      {"measurement": "mitochondrial content (amount of porin)", "setting": "[5]; COPD BSM cells, ethidium bromide or cyclic GMP 6 d", "result": "increased"},
      {"measurement": "mitochondrial content (amount of porin)", "setting": "[5]; asthmatic BSM cells, ethidium bromide or cyclic GMP 6 d, 1 μM D600 48 h", "result": "failed to additionally increase"},
      {"measurement": "mitochondrial content (amount of porin)", "setting": "[5]; control BSM cells, ethidium bromide or cyclic GMP 6 d", "result": "increased"},
      {"measurement": "proliferation of endothelial cells", "setting": "[10]", "result": "increased"},
      {"measurement": "proliferation", "setting": "[11]", "result": "inhibit"}
    ]}
  ]
}
